Key:
[1] = tested on: Human immunodeficiency virus 1; assay: Antiviral activity against HIV1 3B infected in human MT2 cells assessed as inhibition of virus-induced cytopathic effect after 5 days by XTT assay; type: functional, organism-based
[2] = Half life in human hepatocytes at 2 uM by LC/MS/MS analysis
[3] = tested on: PBMC; assay: Metabolic stability in cathepsin A-overexpressing human PBMC assessed as compound degradation per ug of protein at 10 uM after 120 mins by scintillation counting; conditions: 2 h, 30 µM
[4] = Half life in dog hepatocytes at 2 uM by LC/MS/MS analysis
[5] = Hydrolytic stability assessed as compound degradation per ug of protein at 10 uM after 90 mins by scintillation counting in presence of human recombinant cathepsin A; conditions: 1.5 h
[6] = Cytotoxicity against human MT2 cells after 5 days by XTT assay
[7] = Cytotoxicity against human HepG2 cells assessed as inhibition of mitochondrial DNA replication after 14 days; conditions: read-out: MTC50
[8] = Clearance in iv dosed Beagle dog after 24 hrs; conditions: in vivo
[9] = Metabolic stability in dog plasma assessed as compound remaining after 60 mins
[10] = species: Homo sapiens; assay: in vitro; conditions: plasma
[11] = Half life in dog intestine S9 fraction at 2 uM by LC/MS/MS analysis; conditions: intestine S9 fraction, t1/2
[12] = Human immunodeficiency virus 1, 3B, MT2, 120 h

SMILES	EC50 [1, 12] [nM]	Activity [3] [pmol/min]	Activity [5] [pmol/min]	CC50 at 120 h [6] [nM]	other results
CCCOC(=O)[C@H](C)NP(=O)(CO[C@@H]1C=C(F)[C@H](n2cnc3c(N)ncnc32)O1)N[C@@H](C)C(=O)OCCC	1060	–	–	–	–
CCCOC(=O)[C@H](Cc1ccccc1)NP(=O)(CO[C@@H]1C=C(F)[C@H](n2cnc3c(N)ncnc32)O1)Oc1ccccc1 (stereo partly specified)	4.9	–	–	–	–
Nc1ncnc2c1ncn2[C@@H]1O[C@H](OCP(=O)(N[C@@H](Cc2ccccc2)C(=O)OCC2CC2)Oc2ccccc2)C=C1F (stereo partly specified)	7.5	41	39270	> 100000	half-life at 2 µM ([2]; t1/2): 0.667 h; half-life at 2 µM ([4]; t1/2): 0.283 h
CC(C)OC(=O)[C@H](C)NP(=O)(CO[C@@H]1C=C(F)[C@H](n2cnc3c(N)ncnc32)O1)Oc1ccccc1 (stereo in doubt; 18s) [(2S)-ISOPROPYL 2-(((2R,5R)-5-(6-AMINO-9H-PURIN-9-YL)-4-FLUORO-2,5-DIHYDROFURAN-2-YLOXY)(PHENOXY)PHOSPHORYLAMINO)PROPANOATE (ENANTIOMERIC MIX)]	–	0.3	216	–	half-life at 2 µM ([4]; t1/2): 1.47 h; EC50 ([1]; mt2): 728 nM
CC(C)COC(=O)CNP(=O)(CO[C@@H]1C=C(F)[C@H](n2cnc3c(N)ncnc32)O1)Oc1ccccc1 (stereo partly specified)	1120	0.72	226	22000	–
CC(C)COC(=O)CNP(=O)(CO[C@@H]1C=C(F)[C@H](n2cnc3c(N)ncnc32)O1)NCC(=O)OCC(C)C	1610	0	0	> 100000	–
CCCCSC(=O)[C@@H](Cc1ccccc1)NP(=O)(CO[C@@H]1C=C(F)[C@H](n2cnc3c(N)ncnc32)O1)Oc1ccccc1 (stereo partly specified)	141	2.1	1510	> 100000	half-life at 2 µM ([4]; t1/2): 0.933 h
CCOC(=O)[C@H](C)NP(=O)(CO[C@@H]1C=C(F)[C@H](n2cnc3c(N)ncnc32)O1)Oc1ccccc1 (stereo partly specified) [listing 1 of 2 here]	–	–	–	–	EC50 ([1]; mt2): 262 nM
CCOC(=O)[C@H](C)NP(=O)(CO[C@@H]1C=C(F)[C@H](n2cnc3c(N)ncnc32)O1)N[C@@H](C)C(=O)OCC	723	–	–	–	–
CC[C@H](NP(=O)(CO[C@@H]1C=C(F)[C@H](n2cnc3c(N)ncnc32)O1)N[C@@H](CC)C(=O)OCC(C)C)C(=O)OCC(C)C	128	1.3	867	–	half-life at 2 µM [4]: 1.18 h
C[C@H](NP(=O)(CO[C@@H]1C=C(F)[C@H](n2cnc3c(N)ncnc32)O1)Oc1ccccc1)C(=O)OCC1CC1 (stereo partly specified)	59	–	–	–	–
CC(C)OC(=O)[C@H](Cc1ccccc1)NP(=O)(CO[C@@H]1C=C(F)[C@H](n2cnc3c(N)ncnc32)O1)Oc1ccccc1 (stereo partly specified)	63	–	–	–	–
CCOC(=O)[C@H](Cc1ccccc1)NP(=O)(CO[C@@H]1C=C(F)[C@H](n2cnc3c(N)ncnc32)O1)N[C@@H](Cc1ccccc1)C(=O)OCC	8.9	40	41020	–	–
CC(C)COC(=O)[C@H](C)NP(=O)(CO[C@@H]1C=C(F)[C@H](n2cnc3c(N)ncnc32)O1)N[C@@H](C)C(=O)OCC(C)C	119	2.1	1770	> 100000	half-life at 2 µM [4]: 3.22 h
CCC(CC)OC(=O)[C@H](C)NP(=O)(CO[C@@H]1C=C(F)[C@H](n2cnc3c(N)ncnc32)O1)Oc1ccccc1 (stereo partly specified)	662	0	0	8350	–
C[C@H](Cn1cnc2c(N)ncnc21)OCP(=O)(O)O [TENOFOVIR ANHYDROUS]	13	–	–	> 50000	CC50 at 336 h [7]: 3600 nM
CCCCOC(=O)[C@H](Cc1ccccc1)NP(=O)(CO[C@@H]1C=C(F)[C@H](n2cnc3c(N)ncnc32)O1)N[C@@H](Cc1ccccc1)C(=O)OCCCC	8.4	50	66680	4800	half-life at 2 µM [4]: 0.167 h
CCCOC(=O)[C@H](C)NP(=O)(CO[C@@H]1C=C(F)[C@H](n2cnc3c(N)ncnc32)O1)Oc1ccccc1 (stereo partly specified)	52	26	19103	31000	half-life at 2 µM ([4]; t1/2): 1.47 h
CCOC(=O)[C@H](C)NP(=O)(CO[C@@H]1C=C(F)[C@H](n2cnc3c(N)ncnc32)O1)Oc1ccccc1 (stereo partly specified) [listing 2 of 2 here]	–	–	–	–	EC50 ([1]; mt2): 157 nM

SMILES	EC50 [1, 12] [nM]	Activity [3] [pmol/min]	Activity [5] [pmol/min]	CC50 at 120 h [6] [nM]	other results
CCCCOC(=O)[C@H](C)NP(=O)(CO[C@@H]1C=C(F)[C@H](n2cnc3c(N)ncnc32)O1)N[C@@H](C)C(=O)OCCCC	68	18	17355	51000	clearance at 24 h [8]: 53.7 mL/min/kg; remaining at 1 h [9]: 100%; half-life at 2 µM [4]: 0.8 h; remaining at 1 h [10]: 96%
CC(C)COC(=O)[C@H](C)NP(=O)(CO[C@@H]1C=C(F)[C@H](n2cnc3c(N)ncnc32)O1)Oc1ccccc1 (stereo partly specified)	58	–	–	–	–
CC(C)COC(=O)[C@H](Cc1ccccc1)NP(=O)(CO[C@@H]1C=C(F)[C@H](n2cnc3c(N)ncnc32)O1)OCC(F)(F)F (stereo partly specified)	119	22	30107	> 100000	half-life at 2 µM [4]: 0.45 h
CCOC(=O)[C@H](C)NP(=O)(CO[C@@H]1C=C(F)[C@H](n2cnc3c(N)ncnc32)O1)Oc1ccccc1 (stereo partly drawn) [(2S)-ETHYL 2-((((2R,5R)-5-(6-AMINO-9H-PURIN-9-YL)-4-FLUORO-2,5-DIHYDROFURAN-2-YLOXY)METHYL)(PHENOXY)PHOSPHORYLAMINO)PROPANOATE (ENANTIOMERIC MIX)]	–	–	–	–	EC50 ([1]; mt2): 96 nM
CC[C@H](NP(=O)(CO[C@@H]1C=C(F)[C@H](n2cnc3c(N)ncnc32)O1)Oc1ccccc1)C(=O)OCC(C)C (stereo partly specified)	103	1.9	728	> 100000	half-life at 2 µM ([4]; t1/2): 2.12 h
CCCOC(=O)[C@H](Cc1ccccc1)NP(=O)(CO[C@@H]1C=C(F)[C@H](n2cnc3c(N)ncnc32)O1)N[C@@H](Cc1ccccc1)C(=O)OCCC	5.2	20	27642	–	–
CCOC(=O)[C@H](C)NP(=O)(CO[C@@H]1C=C(F)[C@H](n2cnc3c(N)ncnc32)O1)OCC(F)(F)F (stereo partly specified)	1050	0.69	1132	> 100000	half-life at 2 µM [2]: 3.08 h; half-life at 2 µM [4]: 1.43 h
CC(C)OC(=O)CNP(=O)(CO[C@@H]1C=C(F)[C@H](n2cnc3c(N)ncnc32)O1)NCC(=O)OC(C)C	> 2000	–	–	–	–
CC[C@H](NP(=O)(CO[C@@H]1C=C(F)[C@H](n2cnc3c(N)ncnc32)O1)N[C@@H](CC)C(=O)OC(C)C)C(=O)OC(C)C	> 2000	0.05	0	–	remaining at 1 h [9]: 100%; half-life at 2 µM [4]: 11.5 h; remaining at 1 h [10]: 100%
CCCCOC(=O)[C@H](C)NP(=O)(CO[C@@H]1C=C(F)[C@H](n2cnc3c(N)ncnc32)O1)Oc1ccccc1 (stereo partly specified)	92	7.3	6183	91000	half-life at 2 µM ([4]; t1/2): 1.05 h
Nc1ncnc2c1ncn2[C@@H]1O[C@H](OCP(=O)(N[C@@H](Cc2ccccc2)C(=O)OC2CCC2)Oc2ccccc2)C=C1F (stereo partly specified)	20	–	–	–	–
C[C@H](NP(=O)(CO[C@@H]1C=C(F)[C@H](n2cnc3c(N)ncnc32)O1)Oc1ccccc1)C(=O)OC1CCCC1 (stereo partly specified)	63	3	5688	> 100000	–
Nc1ncnc2c1ncn2[C@@H]1O[C@H](OCP(=O)(N[C@@H](Cc2ccccc2)C(=O)OCC2CCC2)Oc2ccccc2)C=C1F (stereo partly specified)	3.8	24	37017	46500	half-life at 2 µM [11]: 3.4 min; half-life at 2 µM ([2]; t1/2): 1.03 h; half-life at 2 µM ([4]; t1/2): 0.383 h
CCCCOC(=O)[C@H](CC)NP(=O)(CO[C@@H]1C=C(F)[C@H](n2cnc3c(N)ncnc32)O1)Oc1ccccc1 (stereo partly specified)	88	1.4	1377	70000	half-life at 2 µM ([4]; t1/2): 1.52 h
CCOC(=O)[C@H](C)OP(=O)(CO[C@@H]1C=C(F)[C@H](n2cnc3c(N)ncnc32)O1)Oc1ccccc1 (stereo partly specified)	2000	–	–	–	–
CCCCOC(=O)[C@H](CC)NP(=O)(CO[C@@H]1C=C(F)[C@H](n2cnc3c(N)ncnc32)O1)N[C@@H](CC)C(=O)OCCCC	90	1.3	1872	> 100000	remaining at 1 h ([9]; Stability): 100%; half-life at 2 µM ([4]; t1/2): 1.22 h; remaining at 1 h ([10]; Stability): 99%
CCCCCOC(=O)[C@H](C)NP(=O)(CO[C@@H]1C=C(F)[C@H](n2cnc3c(N)ncnc32)O1)Oc1ccccc1 (stereo partly specified)	33	6.7	5088	27000	half-life at 2 µM ([4]; t1/2): 0.95 h
C[C@H](NP(=O)(CO[C@@H]1C=C(F)[C@H](n2cnc3c(N)ncnc32)O1)Oc1ccccc1)C(=O)OCC1CCC1 (stereo partly specified)	25	–	–	–	–
